Reference: paper PMC3684770 (Free Radical Biology & Medicine, 2013)
pEC50, pIC50: −log10 of the molar value. Where two headings read alike, the source gives them in different places.

How the values were obtained:
Nrf2-ARE pathway = assay: ARE reporter assay in CHO 4xARE-TK-GFP cells (Spectrum library hits); conditions: for Toxic dose: lowest dose at which a reduction in GFP fluorescence was observed; for Cmax: read-out: Cmax (concentration inducing a maximal response), CHO-4xARE-TK, 24 hours, serum free medium
Method: The Z′ score was calculated as follows Z′=1−(3SD^++3SD^−)/(Ave^+–Ave^−) where SD^+ = standard deviation of positive control wells; SD^− = standard deviation of negative control wells; Ave^+ = average fluorescence reading of positive control wells; Ave^− = average fluorescence reading of negative control wells.
Media was removed by hand and replaced (1 compound/well) with the Spectrum library diluted to 10 μM in 0.1% DMSO using a Q-bot liquid handling system (Genetix, New Milton, UK). […] The TK-GFP CHO ARE cell line was screened twice in a single point assay and the control TK-GFP CHO cell line was screened once to eliminate false positives.
The compounds were applied in triplicate to confluent cells in 96 well plates in serum free medium for 24 hours and the induction of GFP measured in a fluorescence plate reader.
In order to screen the Spectrum collection of 2000 molecules the reporter assay was optimised in […]. To assess the suitability of the assay for library screening, a Z’ score calculation was performed by treating alternate wells with vehicle (0.1% DMSO) and 10 µM Ebselen as a positive control (see calculation in Methods). […] The library was subsequently screened at a single point concentration of 10µM for every compound. Drug library dilutions and plating were performed with a Q-BOT liquid handling system and both the 4xARE-TK-GFP reporter cell line and TK-GFP control cell line were tested for their response to the compounds. Hits were identified as having data points more than three standard deviations above the background level, which was the average value of 24 wells treated with vehicle (0.1% DMSO) only. Hit compounds were checked to see if they generated a response in the control cell line, for example by non-specific activation of transcription or autofluorescence. […] The library screen was repeated once in the 4xARE –TK-CHO cell line and compounds classed as hits in both screens were taken forward for further assessment.

C6 astrocyte cell line = assay: C6 oxidative stress assay (serum withdrawal, DCF); conditions: for C6 oxidative stress assay Toxic dose: minimum dose at which toxicity was observed; for pIC50: read-out: C6 oxidative stress assay IC50; for Emax: 24 h, read-out: C6 oxidative stress assay Max reduction
Method: (§1) Media were then replaced with serum-free, phenol-free media for 5 h.

NSC34 cells = assay: NSC34 oxidative stress assay (serum withdrawal, DCF); conditions: for NSC34 oxidative stress assay Toxic dose: minimum dose at which toxicity was observed; for Emax: Mus musculus, NSC-34, 24 h, read-out: NSC34 oxidative stress assay Max reduction
Method: as §1

[1] = system: 1321N1 astrocyte cell line; assay: 1321N1 oxidative stress assay (serum withdrawal, DCF); conditions: for 1321N1 oxidative stress assay Toxic dose: minimum dose at which toxicity was observed; for Emax: 1321-N1, 24 h, read-out: 1321N1 oxidative stress assay Max reduction
Method: as §1

[2] = CHO ARE reporter, 7-point concentration response
[3] = average fold over baseline at the maximal response, CHO cells, 24 h
[4] = maximum % inhibition of DCF signal
[5] = 24-h preconditioning, 6-h serum withdrawal, DCF fluorescence
[6] = maximum % inhibition of DCF signal, negative = prooxidant
[7] = Homo sapiens, 1321-N1, read-out: 1321N1 oxidative stress assay IC50

O=C(CC[N+](=O)[O-])OC[C@H]1O[C@@H](O)[C@H](OC(=O)CC[N+](=O)[O-])[C@@H](OC(=O)CC[N+](=O)[O-])[C@@H]1OC(=O)CC[N+](=O)[O-] [Endecaphyllin X]
pEC50 (Nrf2-ARE pathway; [2]): 4.73 | Fold GFP induction (Nrf2-ARE pathway; [3]): 2.15 fold | Toxic dose (Nrf2-ARE pathway): None | C6 oxidative stress assay Max reduction (C6 astrocyte cell line; [4]): 40% | C6 oxidative stress assay Toxic dose (C6 astrocyte cell line): none | pIC50 (C6 astrocyte cell line; [5]): 5.50 | NSC34 oxidative stress assay Max reduction (NSC34 cells; [6]): 0% | NSC34 oxidative stress assay Toxic dose (NSC34 cells): 10 µM | 1321N1 oxidative stress assay Max reduction [1, 4]: 56% | 1321N1 oxidative stress assay Toxic dose [1]: none

CC1(C)C2CC(=O)O[C@@]3(C)C4=CC(=O)O[C@@H](c5ccoc5)[C@]4(C)CCC3[C@@]2(C)C=C[C@H]1O (stereo partly drawn) [Deoxyandirobin lactone]
pEC50 (Nrf2-ARE pathway; Cricetulus griseus): 4.95 | Toxic dose (Nrf2-ARE pathway): 100 µM | Emax (C6 astrocyte cell line; Rattus norvegicus, Astrocyte): 38% | pIC50 (C6 astrocyte cell line; Rattus norvegicus, Astrocyte): 5.54 | C6 oxidative stress assay Toxic dose (C6 astrocyte cell line): None | Emax (NSC34 cells): 0% | NSC34 oxidative stress assay Toxic dose (NSC34 cells): None | Emax ([1]; Homo sapiens): 65% | pIC50 [1, 7]: 5.79 | 1321N1 oxidative stress assay Toxic dose [1]: None

C=CC(C1=CC(=O)C(OC)=CC1=O)c1ccccc1 (stereo not drawn) [4-Methoxydalbergione]
maximal fold induction (Nrf2-ARE pathway; Cricetulus griseus, CHO, 24 h, read-out: Fold GFP induction): 2.11 | Toxic dose (Nrf2-ARE pathway): 100 µM | Emax (C6 astrocyte cell line; Rattus norvegicus, Astrocyte): 14% | pIC50 (C6 astrocyte cell line; Rattus norvegicus, Astrocyte): 5.60 | C6 oxidative stress assay Toxic dose (C6 astrocyte cell line): none | Emax (NSC34 cells): -44% | NSC34 oxidative stress assay Toxic dose (NSC34 cells): none | Emax ([1]; Homo sapiens): 43% | 1321N1 oxidative stress assay Toxic dose [1]: none

CC(=O)O[C@@H]1C[C@H]2C(C)(C)C(=O)C=C[C@]2(C)[C@H]2CC[C@]3(C)C(=CC(=O)O[C@H]3c3ccoc3)[C@@]21C [Deoxygedunin]
pEC50 (Nrf2-ARE pathway; [2]): 5.94 | Fold GFP induction (Nrf2-ARE pathway; [3]): 1.82 fold | Toxic dose (Nrf2-ARE pathway): 30 µM | C6 oxidative stress assay Max reduction (C6 astrocyte cell line; [4]): 61% | C6 oxidative stress assay Toxic dose (C6 astrocyte cell line): none | pIC50 (C6 astrocyte cell line; [5]): 5.66 | NSC34 oxidative stress assay Max reduction (NSC34 cells; [6]): 7% | NSC34 oxidative stress assay Toxic dose (NSC34 cells): 10 µM | 1321N1 oxidative stress assay Max reduction [1, 4]: 25% | 1321N1 oxidative stress assay Toxic dose [1]: 10 µM | pIC50 ([1]; read-out: 1321N1 oxidative stress assay IC50, 24-h preconditioning, 6-h serum withdrawal, DCF fluorescence): 5.85

3-α-Hydroxygedinin
Fold GFP induction (Nrf2-ARE pathway): 3.01 fold | C6 oxidative stress assay Max reduction (C6 astrocyte cell line): 42% | pIC50 (C6 astrocyte cell line): 5.49 | NSC34 oxidative stress assay Max reduction (NSC34 cells): 14% | 1321N1 oxidative stress assay Max reduction [1]: 25%

CC(=O)Oc1ccc(O)cc1 [4-Acetoxyphenol]
pEC50 (Nrf2-ARE pathway; Cricetulus griseus): 5.54 | Toxic dose (Nrf2-ARE pathway): 100 µM | Emax (C6 astrocyte cell line; Rattus norvegicus, Astrocyte): 0% | C6 oxidative stress assay Toxic dose (C6 astrocyte cell line): none | Emax (NSC34 cells): -70% | NSC34 oxidative stress assay Toxic dose (NSC34 cells): none | Emax ([1]; Homo sapiens): 42% | pIC50 [1, 7]: 6.53 | 1321N1 oxidative stress assay Toxic dose [1]: none

CC(C)(C)c1cc(O)ccc1O [tBHQ, tert-butyl hydroquinone, reference compound]
Cmax (Nrf2-ARE pathway): 10 µM

CC(=O)O[C@@H]1CC2C(C)(C)C=CC(=O)[C@]2(C)C2CC[C@@]3(C)[C@H](c4ccoc4)OC(=O)C4OC43[C@@]21C (stereo partly drawn) [Isogedunin]
pEC50 (Nrf2-ARE pathway; [2]): < 4.00 | Fold GFP induction (Nrf2-ARE pathway; [3]): 3.11 fold | Toxic dose (Nrf2-ARE pathway): None | NSC34 oxidative stress assay Max reduction (NSC34 cells; [6]): 0% | NSC34 oxidative stress assay Toxic dose (NSC34 cells): 1 µM | 1321N1 oxidative stress assay Max reduction [1, 4]: 10% | 1321N1 oxidative stress assay Toxic dose [1]: None

epigallocatechin-3-gallate [EGCG, reference compound]
Cmax (Nrf2-ARE pathway): 100 µM
